Laboratory results as given in patent US8642554B2, “Smac mimetic dimers and trimers useful as anti-cancer agents” (Joyant Pharmaceuticals, Inc., priority 2007, dated 2014).

Key:
HCC461 cells = assay: Cell viability assay in HCC461 cells (WST-1); assay type: cell-based; conditions: 48 hrs incubation
Method: HCC461 cells plated in 96 well plates at 5×10^4/ml cell density are treated with 50× synthetic Smac mimetic compounds (final concentration range between 30 uM and 0.001 uM). After 48 hrs incubation at 37° C. and 5% CO2 viability of the cells are measured using Cell Proliferation Reagent WST-1 assay kit (Roche Cat #11 644 807 001).
WST-1 assay principle: The tetrazolium salts are cleaved to formazan by cellular enzymes. An expansion in the number of viable cells results in an increase in the overall activity of mitochondrial dehydrogenases in the samples. This augmentation in the enzyme activity leads to an increase in the amount of formazan dye formed, which directly correlates to the number of metabolically active cells in the culture. Quantification of the formazan dye produced by metabolically active cells by using a microplate (ELISA) reader at 420-480 nm.

[1] = biological target: truncated XIAP containing only BIR1, BIR2, and BIR3 domains (Homo sapiens, UniProt P98170); assay: Fluorescent polarization (FP) assay; assay type: binding
Chain of truncated XIAP containing only BIR1, BIR2, and BIR3 domains (P98170 26-330 limits assumed): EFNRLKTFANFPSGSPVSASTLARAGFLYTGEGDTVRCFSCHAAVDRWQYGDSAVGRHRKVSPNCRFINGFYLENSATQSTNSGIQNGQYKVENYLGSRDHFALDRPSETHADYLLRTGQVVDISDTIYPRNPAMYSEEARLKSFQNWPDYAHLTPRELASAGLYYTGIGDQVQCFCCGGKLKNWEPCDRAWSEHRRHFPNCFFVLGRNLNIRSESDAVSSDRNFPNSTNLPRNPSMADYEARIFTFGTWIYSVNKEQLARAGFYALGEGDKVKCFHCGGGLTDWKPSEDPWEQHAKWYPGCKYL
Method: Increasing concentrations of Smac compounds are incubated with 2 nM of labeled peptide (fluorescein labeled 10mer peptide with AVPI 4 amino acids at its N terminus-Alexa Fluor 488) and truncated XIAP containing only BIR1, BIR2, and BIR3 domains at room temperature for 1 hour. Fluorescence reading, indicative of the bound portion of the labeled peptide, is measured in milipolarization units (mP). The more compound added, less fluorescein labeled peptide bind to the protein due to the competitive binding and less fluorescence signal is released.
Based on this principle, we obtain the Ki value that evaluates compound's binding affinity.

[2] = tested on: Caspase3 activity in Hela S100 (blocked by IAPs); assay: In vitro caspase-3 activation assay in Hela S100; assay type: biochemical; conditions: 100 nM compound, activity compared with reference compound, Table 1 experiment
Method: Caspase3 in most cell extracts can be activated by the addition of 1 mM dATP through the mitochondria caspase pathway. […] Taking advantage of this feature, we use 100 nM of synthetic Smac mimetic compound to test its ability to eliminate IAPs in the Hela S100 and fully induce Caspase3 activity. The In Vitro Caspase3 assay is carried out at 30° C., incubating 100 nM compounds with 30 ug of Hela S100, 1 mM dATP, 10 uM Caspase3 fluorogenic substrate (Caspase3 Substrate II, Fluorogenic, #235425 from Calbiochem). The readout is caspase-3 activity represented by relative fluorogenic unit, which is recorded kinetically. The slope in linear region of the curve for each compound is calculated.
Percent activity data is presented by comparing activity of the test compound with activity of the reference compound in Caspase-3 activation assay in vitro. The ratio of each synthetic compound's slope versus the slope of control reflects in vitro caspase-3 activation ability of compounds.

[3] = HCC461, 48 h, Table 2 experiment
[4] = HCC461, 48 h, Table 1 experiment

CN[C@@H](C)C(=O)N[C@H](C(=O)N1C[C@@H](NC(=O)COCC(=O)N[C@H]2C[C@@H](C(=O)N[C@@H]3CCCc4ccccc43)N(C(=O)[C@@H](NC(=O)[C@H](C)NC)C(C)(C)C)C2)C[C@H]1C(=O)N[C@@H]1CCCc2ccccc21)C(C)(C)C [compound 27]
IC50 (HCC461 cells; [3]): 0.082 µM
Ki ([1]; Table 2 experiment): 0.25 µM

C#CC[C@H](NC(=O)[C@H](C)NC)C(=O)N1C[C@@H](NC(=O)[C@H](O)[C@@H](O)C(=O)N[C@H]2C[C@@H](C(=O)N[C@@H]3CCCc4ccccc43)N(C(=O)[C@H](CC#C)NC(=O)[C@H](C)NC)C2)C[C@H]1C(=O)N[C@@H]1CCCc2ccccc21 [compound 22]
IC50 (HCC461 cells; [4]): 0.263 µM

CN[C@@H](C)C(=O)NC(C(=O)C1C[C@@H](NC(=O)C2CCCC2C(=O)N[C@H]2CC(C(=O)N[C@@H]3CCCc4ccccc43)N(C(=O)[C@@H](NC(=O)[C@H](C)NC)C(C)(C)C)C2)CC1C(=O)N[C@@H]1CCCc2ccccc21)C(C)(C)C.Cl.Cl (single isomer, unassigned) [compound 17]
IC50 (HCC461 cells; [4]): 0.019 µM
Ki ([1]; Table 1 experiment): 0.5 µM
% Activity at 100 nM ([2]; 0.1 µM): 92%

CN[C@@H](C)C(=O)N[C@H](C(=O)N1C[C@@H](NC(=O)CN(C)CC(=O)N[C@H]2C[C@@H](C(=O)N[C@@H]3CCCc4ccccc43)N(C(=O)[C@@H](NC(=O)[C@H](C)NC)C(C)(C)C)C2)C[C@H]1C(=O)N[C@@H]1CCCc2ccccc21)C(C)(C)C.Cl.Cl.Cl [compound 16]
IC50 (HCC461 cells; [4]): 0.074 µM
Ki ([1]; Table 1 experiment): 0.4 µM
% Activity at 100 nM [2]: 115%

CN[C@@H](C)C(=O)N[C@H](C(=O)N1C[C@@H](NC(=O)c2ccc(C(=O)N[C@H]3C[C@@H](C(=O)N[C@@H]4CCCc5ccccc54)N(C(=O)[C@@H](NC(=O)[C@H](C)NC)C(C)(C)C)C3)s2)C[C@H]1C(=O)N[C@@H]1CCCc2ccccc21)C(C)(C)C.Cl.Cl [compound 12]
IC50 (HCC461 cells; [4]): 0.002 µM
Ki ([1]; Table 1 experiment): 0.4 µM
% Activity at 100 nM [2]: 104%

CN[C@@H](C)C(=O)N[C@H](C(=O)N1C[C@@H](NC(=O)c2cc(O)cc(C(=O)N[C@H]3C[C@@H](C(=O)N[C@@H]4CCCc5ccccc54)N(C(=O)[C@@H](NC(=O)[C@H](C)NC)C(C)(C)C)C3)c2)C[C@H]1C(=O)N[C@@H]1CCCc2ccccc21)C(C)(C)C.Cl.Cl [compound 14]
IC50 (HCC461 cells; [4]): 0.026 µM
Ki ([1]; Table 1 experiment): 0.44 µM
% Activity at 100 nM [2]: 86%

C#CC[C@H](NC(=O)[C@H](C)NC)C(=O)N1C[C@@H](NC(=O)c2cccc(C(=O)N[C@H]3C[C@@H](C(=O)N[C@@H]4CCCc5ccccc54)N(C(=O)[C@H](CC#C)NC(=O)[C@H](C)NC)C3)n2)C[C@H]1C(=O)N[C@@H]1CCCc2ccccc21 [compound 20]
IC50 (HCC461 cells; [4]): 0.222 µM

CN[C@@H](C)C(=O)N[C@H](C(=O)N1C[C@@H](NC(=O)[C@H]2CC[C@@](C)(C(=O)N[C@H]3C[C@@H](C(=O)N[C@@H]4CCCc5ccccc54)N(C(=O)[C@@H](NC(=O)[C@H](C)NC)C(C)(C)C)C3)C2(C)C)C[C@H]1C(=O)N[C@@H]1CCCc2ccccc21)C(C)(C)C [compound 30]
IC50 (HCC461 cells; [3]): 0.008 µM
Ki ([1]; Table 2 experiment): 0.29 µM

CN[C@@H](C)C(=O)N[C@H](C(=O)N1C[C@@H](NC(=O)CC(C)(O)CC(=O)N[C@H]2C[C@@H](C(=O)N[C@@H]3CCCc4ccccc43)N(C(=O)[C@@H](NC(=O)[C@H](C)NC)C(C)(C)C)C2)C[C@H]1C(=O)N[C@@H]1CCCc2ccccc21)C(C)(C)C [compound 26]
IC50 (HCC461 cells; [3]): 0.023 µM
Ki ([1]; Table 2 experiment): 0.32 µM

CN[C@@H](C)C(=O)NC(C(=O)C1C[C@@H](NC(=O)C2CCCC2C(=O)N[C@H]2CC(C(=O)N[C@@H]3CCCc4ccccc43)N(C(=O)[C@@H](NC(=O)[C@H](C)NC)C(C)(C)C)C2)CC1C(=O)N[C@@H]1CCCc2ccccc21)C(C)(C)C (stereo partly shown) [compound 23]
IC50 (HCC461 cells; Table 2 experiment): 0.002 µM
Ki ([1]; Table 2 experiment): 0.05 µM

CN[C@@H](C)C(=O)NC(C(=O)C1C[C@@H](NC(=O)C2CCCC(C(=O)N[C@H]3CC(C(=O)N[C@@H]4CCCc5ccccc54)N(C(=O)[C@@H](NC(=O)[C@H](C)NC)C(C)(C)C)C3)C2)CC1C(=O)N[C@@H]1CCCc2ccccc21)C(C)(C)C (stereo partly shown) [compound 25]
IC50 (HCC461 cells; [3]): 0.024 µM
Ki ([1]; Table 2 experiment): 0.25 µM

CN[C@@H](C)C(=O)N[C@H](C(=O)N1C[C@@H](NC(=O)c2c(F)c(F)c(F)c(C(=O)N[C@H]3C[C@@H](C(=O)N[C@@H]4CCCc5ccccc54)N(C(=O)[C@@H](NC(=O)[C@H](C)NC)C(C)(C)C)C3)c2F)C[C@H]1C(=O)N[C@@H]1CCCc2ccccc21)C(C)(C)C [compound 28]
IC50 (HCC461 cells; [3]): 0.002 µM
Ki ([1]; Table 2 experiment): 0.23 µM

CN[C@@H](C)C(=O)N[C@H](C(=O)N1C[C@@H](NC(=O)[C@H](O)[C@@H](O)C(=O)N[C@H]2C[C@@H](C(=O)N[C@@H]3CCCc4ccccc43)N(C(=O)[C@@H](NC(=O)[C@H](C)NC)C(C)(C)C)C2)C[C@H]1C(=O)N[C@@H]1CCCc2ccccc21)C(C)(C)C [compound 21]
IC50 (HCC461 cells; [4]): 0.101 µM

CN[C@@H](C)C(=O)NC(C(=O)C1C[C@@H](NC(=O)C2CCCC2C(=O)N[C@H]2CC(C(=O)N[C@@H]3CCCc4ccccc43)N(C(=O)[C@@H](NC(=O)[C@H](C)NC)C(C)(C)C)C2)CC1C(=O)N[C@@H]1CCCc2ccccc21)C(C)(C)C (stereo partly shown) [compound 24]
IC50 (HCC461 cells; Table 2 experiment): 0.021 µM
Ki ([1]; Table 2 experiment): 0.35 µM

CN[C@@H](C)C(=O)N[C@H](C(=O)N1C[C@@H](NC(=O)[C@@H]2CC[C@](C)(C(=O)N[C@H]3C[C@@H](C(=O)N[C@@H]4CCCc5ccccc54)N(C(=O)[C@@H](NC(=O)[C@H](C)NC)C(C)(C)C)C3)C2(C)C)C[C@H]1C(=O)N[C@@H]1CCCc2ccccc21)C(C)(C)C [compound 31]
IC50 (HCC461 cells; [3]): 0.003 µM
Ki ([1]; Table 2 experiment): 0.34 µM

CN[C@@H](C)C(=O)N[C@H](C(=O)N1C[C@@H](NC(=O)c2cc(N)cc(C(=O)N[C@H]3C[C@@H](C(=O)N[C@@H]4CCCc5ccccc54)N(C(=O)[C@@H](NC(=O)[C@H](C)NC)C(C)(C)C)C3)c2)C[C@H]1C(=O)N[C@@H]1CCCc2ccccc21)C(C)(C)C [compound 32]
IC50 (HCC461 cells; [3]): 0.015 µM
Ki ([1]; Table 2 experiment): 0.23 µM

CN[C@@H](C)C(=O)NC(C(=O)C1C[C@@H](NC(=O)c2cccc(C(=O)N[C@H]3CC(C(=O)N[C@@H]4CCCc5ccccc54)N(C(=O)[C@@H](NC(=O)[C@H](C)NC)C(C)(C)C)C3)c2)CC1C(=O)N[C@@H]1CCCc2ccccc21)C(C)(C)C.Cl.Cl (stereo partly shown) [compound 19]
IC50 (HCC461 cells; [4]): 0.007 µM
Ki ([1]; Table 1 experiment): 0.45 µM
% Activity at 100 nM [2]: 120%

CN[C@@H](C)C(=O)N[C@@H](CC#CC#CC[C@H](NC(=O)[C@H](C)NC)C(=O)N1CCC[C@H]1C(=O)N[C@@H]1CCCc2ccccc21)C(=O)N1CCC[C@H]1C(=O)N[C@@H]1CCCc2ccccc21.Cl.Cl [Ref cpd, reference compound]
IC50 (HCC461 cells; [4]): 0.082 µM
IC50 (HCC461 cells; [3]): 0.063 µM
Ki ([1]; Table 1 experiment): 0.35 µM
Ki ([1]; Table 2 experiment): 0.15 µM
% Activity at 100 nM [2]: 100%

CN[C@@H](C)C(=O)N[C@H](C(=O)N1C[C@@H](NC(=O)c2cc(C(=O)N[C@H]3C[C@@H](C(=O)N[C@@H]4CCCc5ccccc54)N(C(=O)[C@@H](NC(=O)[C@H](C)NC)C(C)(C)C)C3)[nH]n2)C[C@H]1C(=O)N[C@@H]1CCCc2ccccc21)C(C)(C)C.Cl.Cl [compound 15]
IC50 (HCC461 cells; [4]): 0.009 µM
Ki ([1]; Table 1 experiment): 0.45 µM
% Activity at 100 nM [2]: 116%

CN[C@@H](C)C(=O)NC(C(=O)C1C[C@@H](NC(=O)C2CCCC2C(=O)N[C@H]2CC(C(=O)N[C@@H]3CCCc4ccccc43)N(C(=O)[C@@H](NC(=O)[C@H](C)NC)C(C)(C)C)C2)CC1C(=O)N[C@@H]1CCCc2ccccc21)C(C)(C)C.Cl.Cl (single isomer, unassigned) [compound 18]
IC50 (HCC461 cells; Table 1 experiment): 0.033 µM
Ki ([1]; Table 1 experiment): 0.35 µM
% Activity at 100 nM ([2]; 0.1 µM): 107%

CN[C@@H](C)C(=O)N[C@H](C(=O)N1C[C@@H](NC(=O)C23CC4CC(C2)CC(C(=O)N[C@H]2C[C@@H](C(=O)N[C@@H]5CCCc6ccccc65)N(C(=O)[C@@H](NC(=O)[C@H](C)NC)C(C)(C)C)C2)(C4)C3)C[C@H]1C(=O)N[C@@H]1CCCc2ccccc21)C(C)(C)C [compound 29]
IC50 (HCC461 cells; [3]): 0.005 µM
Ki ([1]; Table 2 experiment): 0.24 µM

CN[C@@H](C)C(=O)N[C@H](C(=O)N1C[C@@H](NS(=O)(=O)c2cccc(S(=O)(=O)N[C@H]3C[C@@H](C(=O)N[C@@H]4CCCc5ccccc54)N(C(=O)[C@@H](NC(=O)[C@H](C)NC)C(C)(C)C)C3)c2)C[C@H]1C(=O)N[C@@H]1CCCc2ccccc21)C(C)(C)C.Cl.Cl [compound 13]
IC50 (HCC461 cells; [4]): 0.026 µM
Ki ([1]; Table 1 experiment): 0.3 µM
% Activity at 100 nM [2]: 108%
